# Laboratory results taken from PMC11770821, “Pharmacokinetics and pharmacodynamics of an innovative psychedelic N,N-dimethyltryptamine/harmine formulation in healthy participants: a randomized controlled trial” (International Journal of Neuropsychopharmacology, 2025).
# Tests used:
# [1] = tested on: healthy male volunteers; assay: Acute subjective drug effects, visual analog scales (VAS 0–100); assay type: in vivo, human
# Procedure: The detailed dosing scheme is depicted in Figure 1.
# The intensity of acute subjective effects was monitored with visual analog scales (VASs, range 0–100) on a touchscreen tablet throughout the study day at baseline (−90), 0, 30, 60, 90, 120, 180, 240, and 300 after the first DMT/placebo administration. At 360 minutes after the first DMT/placebo administration, a phenomenological interview was conducted with participants to further explore acute subjective drug effects. For PK-PD analyses, we included VAS for intensity, liking, disliking, and arousal in the present paper. Further analyses on a set of neurophysiological, psychometric, and phenomenological assessments will be presented in forthcoming manuscripts.
# [2] = Plasma pharmacokinetics of DMT, harmine and their metabolites (non-compartmental analysis)
compound,measurement,setting,value
"CN(C)CCc1c[nH]c2ccccc12 [DMT, N,N-dimethyltryptamine]",correlation (r) between subjective intensity ratings and DMT plasma levels,"[1]; DMT + harmine condition, 95% CI 0.51-0.66",0.59
same,duration of psychedelic effects / overall drug action,"[1]; DMT + harmine, after first DMT administration",≤ 240 min
same,duration of acute drug (psychedelic) effects,[1]; DMT co-administered with harmine,2 to 3 h
same,time blood plasma levels remained constant after the last intranasal DMT dose,[2]; DMT + harmine condition,30 min
same,half-life,"[2]; male, human, plasma, other: intranasal",36 min
